Assay results: patent US6355799B1, “Substituted benzene compounds, process for their preparation, and herbicidal and defoliant compositions containing them” (ISK Americas Incorporated, priority 1997, dated 2002)

Tests used:
Assay type in all cases: in vivo
[1] = system: green foxtail (Setaria viridis, SETVI); assay: Pre-emerge test, greenhouse herbicide activity screening; conditions: rating scale 0-100, 14 days after application
Excerpt: (§1) A standard greenhouse herbicide activity screening system was used to evaluate the herbicidal efficacy and crop safety of these test compounds. Seven broadleaf weed species including redroot pigweed (Amaranthus retroflexus, AMARE, velvetleaf (Abutilon theophrasti, ABUTH), sicklepod (Cassia obtusifolia, CASOB), ivyleaf morningglory (Ipomoea hederacea, IPOHE), lambsquarters (Chenopodium album, CHEAL), common ragweed (Ambrosia artemisizfolia L., AMBEL), and cocklebur (Xanthium strumarium, XANST) were used as test species. Four grass weed species including green foxtail (Setaria viridis, SETVI), barnyardgrass (Echinochloa crus-galli, ECHCG), johnsongrass (Sorghum halepense, SORHA), and large crabgrass (Digitaria sanguinalis, DIGSA) were also used. In addition, three crop species, field corn (Zea mays L., var. Dekalb 535, CORN), soybean (Glycine max L., var. Pella 86, SOY), and is upland rice (Oryza sp., var. Tebonnet, RICE) were included.
(§2) All plants were grown in 10 cm square plastic pots which were filled with a sandy loam soil mix. For pre-emerge tests, seeds were planted one day prior to application of the test compounds. For post-emerge tests, seeds were planted 8-21 days prior to the test to allow emergence and good foliage development prior to application of the test substances. At the time of the post-emerge application, plants of all species were usually at the 2-3 leaf stage of development.
(§3) All test compounds Were dissolved in acetone and applied to the test units in a volume of 187 l /ha. Test materials were applied at rates ranging from 15 g ai/ha to 1000 g ai/ha using a track sprayer equipped with a TJ8001E even flow flat fan spray nozzle. Plants were arranged on a shelf so that the top of the canopy (post-emerge) or top of the soil surface (pre-emerge) was 40-45 cm below the nozzle. Pressurized air was used to force the test solution through the nozzle as it was mechanically advanced (via electrically driven chain drive) over the top of all test plants/pots. This application simulates a typical commercial field herbicide application.
(§4) In the post-emerge test, a commercial non-ionic surfactant was also included (0.25% v/v) to enhance wetting of the leaf surfaces of target plants. Immediately after application, test units of the pre-emerge applications were watered at the soil surface to incorporate the test materials. Subsequently, these test units were bottom-watered. Post-emerge test units were always bottom-watered.
(§5) At 14 days after application of the test materials, phytotoxicity ratings were recorded. A rating scale of 0-100 was used as previously described in Research Methods in Weed Science, 2nd edition, B. Truelove, Ed., Southern Weed Science Society, Auburn University, Auburn, Ala. 1977. Briefly, “0” corresponds to no damage and “100” corresponds to complete death of all plants in the test unit. This scale was used both to determine efficacy against weed species and damage to crop species. Herbicide activity data for various compounds of this invention, which are shown by compound No. in Tables 1-8, are shown in Tables 11 and 12.

[2] = system: barnyardgrass (Echinochloa crus-galli, ECHCG); assay: as above; conditions: rating scale 0-100, 14 days after application
Excerpt: as §1, §2, §3, §4, §5

[3] = system: ivyleaf morningglory (Ipomoea hederacea, IPOHE); assay: as above; conditions: rating scale 0-100, 14 days after application
Excerpt: as §1, §2, §3, §4, §5

[4] = system: velvetleaf (Abutilon theophrasti, ABUTH); assay: as above; conditions: rating scale 0-100, 14 days after application
Excerpt: as §1, §2, §3, §4, §5

[5] = system: sicklepod (Cassia obtusifolia, CASOB); assay: as above; conditions: rating scale 0-100, 14 days after application
Excerpt: as §1, §2, §3, §4, §5

[6] = system: lambsquarters (Chenopodium album, CHEAL); assay: as above; conditions: rating scale 0-100, 14 days after application
Excerpt: as §1, §2, §3, §4, §5

[7] = system: large crabgrass (Digitaria sanguinalis, DIGSA); assay: as above; conditions: rating scale 0-100, 14 days after application
Excerpt: as §1, §2, §3, §4, §5

[8] = system: green foxtail (Setaria viridis, SETVI); assay: Post-emerge test, greenhouse herbicide activity screening; conditions: rating scale 0-100 (0 no damage, 100 complete death), 14 days after application
Excerpt: as §1, §2, §3, §4, §5

[9] = system: barnyardgrass (Echinochloa crus-galli, ECHCG); assay: as above; conditions: rating scale 0-100 (0 no damage, 100 complete death), 14 days after application
Excerpt: as §1, §2, §3, §4, §5

[10] = system: ivyleaf morningglory (Ipomoea hederacea, IPOHE); assay: as above; conditions: rating scale 0-100 (0 no damage, 100 complete death), 14 days after application
Excerpt: as §1, §2, §3, §4, §5

[11] = system: velvetleaf (Abutilon theophrasti, ABUTH); assay: as above; conditions: rating scale 0-100 (0 no damage, 100 complete death), 14 days after application
Excerpt: as §1, §2, §3, §4, §5

[12] = system: sicklepod (Cassia obtusifolia, CASOB); assay: as above; conditions: rating scale 0-100 (0 no damage, 100 complete death), 14 days after application
Excerpt: as §1, §2, §3, §4, §5

[13] = system: redroot pigweed (Amaranthus retroflexus, AMARE); assay: as above; conditions: rating scale 0-100 (0 no damage, 100 complete death), 14 days after application
Excerpt: as §1, §2, §3, §4, §5

[14] = system: lambsquarters (Chenopodium album, CHEAL); assay: as above; conditions: rating scale 0-100 (0 no damage, 100 complete death), 14 days after application
Excerpt: as §1, §2, §3, §4, §5

[15] = system: large crabgrass (Digitaria sanguinalis, DIGSA); assay: as above; conditions: rating scale 0-100 (0 no damage, 100 complete death), 14 days after application
Excerpt: as §1, §2, §3, §4, §5

[16] = system: redroot pigweed (Amaranthus retroflexus, AMARE); assay: Pre-emerge test, greenhouse herbicide activity screening; conditions: rating scale 0-100, 14 days after application
Excerpt: as §1, §2
as §3, with “Test materials were applied at rates ranging from 15 g ai/ha to 1000 g ai/ha using a track sprayer equipped with a TJ8001E even flow flat fan spray nozzle.” left out
as §4, §5

In the case of `CCOC(=O)C(Cl)Cc1c(OC)c(Cl)cc(F)c1-n1c(=O)cc(C(F)(F)F)n(C)c1=O` (single isomer, unassigned) [Compound 14-4, 3-{4-chloro-2-[2-chloro-2-(ethoxycarbonyl)ethyl]-6-fluoro-3-methoxyphenyl}-1-methyl-6-trifluoromethyl-2,4(1H, 3H)-pyrimidinedione], the “Pre-emerge herbicidal activity, phytotoxicity rating SETVI” value ([1]; 63 g ai/ha) is reported as 10, the “Pre-emerge herbicidal activity, phytotoxicity rating SETVI” value ([1]; 250 g ai/ha) is reported as 40 and the “Pre-emerge herbicidal activity, phytotoxicity rating ECHCG” value ([2]; 63 g ai/ha) is reported as 0. For the same compound, the “Pre-emerge herbicidal activity, phytotoxicity rating ECHCG” value ([2]; 250 g ai/ha) was 0, the “Pre-emerge herbicidal activity, phytotoxicity rating IPOHE” value ([3]; 63 g ai/ha) was 0 and the “Pre-emerge herbicidal activity, phytotoxicity rating IPOHE” value ([3]; 250 g ai/ha) was 70. For the same compound, the “Pre-emerge herbicidal activity, phytotoxicity rating ABUTH” value ([4]; 63 g ai/ha) was 50, the “Pre-emerge herbicidal activity, phytotoxicity rating ABUTH” value ([4]; 250 g ai/ha) was 80 and the “Pre-emerge herbicidal activity, phytotoxicity rating CASOB” value ([5]; 63 g ai/ha) was 20. For the same compound, the “Pre-emerge herbicidal activity, phytotoxicity rating CASOB” value ([5]; 250 g ai/ha) was 20, the “Pre-emerge herbicidal activity, phytotoxicity rating CHEAL” value ([6]; 63 g ai/ha) was 60 and the “Pre-emerge herbicidal activity, phytotoxicity rating CHEAL” value ([6]; 250 g ai/ha) was 100. For the same compound, the “Pre-emerge herbicidal activity, phytotoxicity rating DIGSA” value ([7]; 63 g ai/ha) was 20, the “Pre-emerge herbicidal activity, phytotoxicity rating DIGSA” value ([7]; 250 g ai/ha) was 95 and the “Post-emerge Herbicidal Activity, phytotoxicity rating SETVI” value ([8]; Rate 63 g ai/ha) was 30. For the same compound, the “Post-emerge Herbicidal Activity, phytotoxicity rating SETVI” value ([8]; Rate 250 g ai/ha) was 65, the “Post-emerge Herbicidal Activity, phytotoxicity rating ECHCG” value ([9]; Rate 63 g ai/ha) was 85 and the “Post-emerge Herbicidal Activity, phytotoxicity rating ECHCG” value ([9]; Rate 250 g ai/ha) was 99. The “Post-emerge Herbicidal Activity, phytotoxicity rating IPOHE” value ([10]; Rate 63 g ai/ha) was 50, the “Post-emerge Herbicidal Activity, phytotoxicity rating IPOHE” value ([10]; Rate 250 g ai/ha) was 60 and the “Post-emerge Herbicidal Activity, phytotoxicity rating ABUTH” value ([11]; Rate 63 g ai/ha) was 80. The “Post-emerge Herbicidal Activity, phytotoxicity rating ABUTH” value ([11]; Rate 250 g ai/ha) was 100, the “Post-emerge Herbicidal Activity, phytotoxicity rating CASOB” value ([12]; Rate 63 g ai/ha) was 50 and the “Post-emerge Herbicidal Activity, phytotoxicity rating CASOB” value ([12]; Rate 250 g ai/ha) was 100. The “Post-emerge Herbicidal Activity, phytotoxicity rating AMARE” value ([13]; Rate 63 g ai/ha) was 100, the “Post-emerge Herbicidal Activity, phytotoxicity rating AMARE” value ([13]; Rate 250 g ai/ha) was 100 and the “Post-emerge Herbicidal Activity, phytotoxicity rating CHEAL” value ([14]; Rate 63 g ai/ha) was 100. The “Post-emerge Herbicidal Activity, phytotoxicity rating CHEAL” value ([14]; Rate 250 g ai/ha) was 100, the “Post-emerge Herbicidal Activity, phytotoxicity rating DIGSA” value ([15]; Rate 63 g ai/ha) was 75 and the “Post-emerge Herbicidal Activity, phytotoxicity rating DIGSA” value ([15]; Rate 250 g ai/ha) was 95. The “Pre-emerge herbicidal activity, phytotoxicity rating AMARE” value ([16]; 63 g ai/ha) was 90 and the “Pre-emerge herbicidal activity, phytotoxicity rating AMARE” value ([16]; 250 g ai/ha) was 100.
